ChEMBL document CHEMBL1201862, “PubChem BioAssay data set” (2004)
Active and inactive are the calls of the source. No stated cut-off is given here; in the data, actives have a measured IC50 and inactives only a lower limit.

Molecular target: Envelope glycoprotein gp160 (Human immunodeficiency virus 1, UniProt Q6QLK5)
Test: cell-free HIV fusion peptide-binding blockers – biochemical, uHTS, fluorescence dequenching, […] (AID 1986)

Envelope glycoprotein gp160, sequence (Q6QLK5 whole entry, the tested form may be a part): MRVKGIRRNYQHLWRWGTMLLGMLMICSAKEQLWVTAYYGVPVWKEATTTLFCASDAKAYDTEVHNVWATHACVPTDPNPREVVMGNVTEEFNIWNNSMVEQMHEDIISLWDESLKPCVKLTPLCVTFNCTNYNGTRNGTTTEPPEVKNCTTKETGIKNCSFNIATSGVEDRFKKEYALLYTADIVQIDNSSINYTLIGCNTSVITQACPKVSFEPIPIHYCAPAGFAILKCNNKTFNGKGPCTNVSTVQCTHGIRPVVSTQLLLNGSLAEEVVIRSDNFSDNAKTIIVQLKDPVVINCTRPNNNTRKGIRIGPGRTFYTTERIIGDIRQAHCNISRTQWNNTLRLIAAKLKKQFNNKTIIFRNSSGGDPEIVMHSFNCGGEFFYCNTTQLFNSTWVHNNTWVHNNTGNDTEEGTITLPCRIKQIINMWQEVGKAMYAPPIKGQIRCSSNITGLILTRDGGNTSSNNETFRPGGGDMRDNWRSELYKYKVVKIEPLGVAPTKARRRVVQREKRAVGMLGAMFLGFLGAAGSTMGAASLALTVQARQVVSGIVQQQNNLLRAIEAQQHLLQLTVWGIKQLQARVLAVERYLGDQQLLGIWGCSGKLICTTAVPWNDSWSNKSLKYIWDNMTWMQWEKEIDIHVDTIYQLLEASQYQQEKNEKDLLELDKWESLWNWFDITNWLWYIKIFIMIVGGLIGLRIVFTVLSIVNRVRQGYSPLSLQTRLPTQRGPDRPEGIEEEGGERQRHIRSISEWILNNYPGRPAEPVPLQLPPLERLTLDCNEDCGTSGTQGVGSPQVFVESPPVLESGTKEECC

Question: With CCc1nnc(NS(=O)(=O)c2ccc(NC(=S)NC(=O)/C=C/c3cccs3)cc2)s1 as the compound, how does the IC50 read?
Answer: 22.6 µM (active)
